Measured values from patent US12252469B2, “Crystalline forms of (E)-N-hydroxy-3-(1-(phenylsulfonyl)indolin-5-yl)acrylamide” (ANBOGEN THERAPEUTICS INC., priority 2023, dated 2025).

Experiment: Long-term stability test of Type A powder
Assay type: physicochemical
Settings: 25±2° C./60±5% RH
Protocol: Furthermore, a long-term stability test and an accelerated stability test of Type A (in the form of powder) are executed, and the results thereof are shown in Table 19 and Table 20, respectively. More specifically, for the long-term stability test, the packaging and storage condition: package in double PE bags with silica gel in an aluminum bag and in a paper drum; sample quantity: 0.6 g; temperature: 25±2° C.; % relative humidity: 60±5%; frequency of analysis: 0, 1, 2, 3, 6, 9, 12, 18, 24, 36, 48 and 60 months; duration: 60 months. As for the accelerated stability test, the packaging and storage condition: package in double PE bags with silica gel in an aluminum bag and in a paper drum; sample quantity: 0.6 g; temperature: 40±2° C.; % relative humidity: 75±5%; frequency of analysis: 0, 1, 2, 3 and 6 months; duration: 6 months.

O=C(/C=C/c1ccc2c(c1)CCN2S(=O)(=O)c1ccccc1)NO [Type A, (E)-N-hydroxy-3-(1-(phenylsulfonyl)indolin-5-yl) acrylamide]
Appearance (0 months): Pale white powder | Assay (HPLC) (98.0%~102.0%) (anhydrous basis) (0 months): 101.6% | Related substance (HPLC) ABT-301 dimer (NMT 0.5%) (0 months): 0 a/a % | Related substance (HPLC) Individual unknown Impurity (NMT 0.4%) (0 months): 0.03% | Related substance (HPLC) Total Impurities (NMT 1.0%) (0 months): 0.1% | Water content (KF) (NMT 4.0%) (0 months): 2.6% | Appearance (1 month): Pale white powder | Assay (HPLC) (98.0%~102.0%) (anhydrous basis) (1 month): 100.3% | Related substance (HPLC) ABT-301 dimer (NMT 0.5%) (1 month): 0 a/a % | Related substance (HPLC) Individual unknown Impurity (NMT 0.4%) (1 month): 0.05% | Related substance (HPLC) Total Impurities (NMT 1.0%) (1 month): 0.1% | Water content (KF) (NMT 4.0%) (1 month): 2.6% | Appearance (2 months): Pale white powder | Assay (HPLC) (98.0%~102.0%) (anhydrous basis) (2 months): 100.6% | Related substance (HPLC) ABT-301 dimer (NMT 0.5%) (2 months): 0 a/a % | Related substance (HPLC) Individual unknown Impurity (NMT 0.4%) (2 months): 0.05% | Related substance (HPLC) Total Impurities (NMT 1.0%) (2 months): 0.1% | Water content (KF) (NMT 4.0%) (2 months): 2.6% | Appearance (3 months): Pale white powder | Assay (HPLC) (98.0%~102.0%) (anhydrous basis) (3 months): 101.4% | Related substance (HPLC) ABT-301 dimer (NMT 0.5%) (3 months): 0 a/a % | Related substance (HPLC) Individual unknown Impurity (NMT 0.4%) (3 months): 0.07% | Related substance (HPLC) Total Impurities (NMT 1.0%) (3 months): 0.1% | Water content (KF) (NMT 4.0%) (3 months): 2.6% | Appearance (6 months): Pale white powder | Assay (HPLC) (98.0%~102.0%) (anhydrous basis) (6 months): 100.2% | Related substance (HPLC) ABT-301 dimer (NMT 0.5%) (6 months): 0 a/a % | Related substance (HPLC) Individual unknown Impurity (NMT 0.4%) (6 months): 0.05% | Related substance (HPLC) Total Impurities (NMT 1.0%) (6 months): 0.1% | Water content (KF) (NMT 4.0%) (6 months): 2.6% | Appearance (9 months): Pale white powder | Assay (HPLC) (98.0%~102.0%) (anhydrous basis) (9 months): 100.6% | Related substance (HPLC) ABT-301 dimer (NMT 0.5%) (9 months): 0 a/a % | Related substance (HPLC) Individual unknown Impurity (NMT 0.4%) (9 months): 0.06% | Related substance (HPLC) Total Impurities (NMT 1.0%) (9 months): 0.1% | Water content (KF) (NMT 4.0%) (9 months): 2.9% | Appearance (12 months): Pale white powder | Assay (HPLC) (98.0%~102.0%) (anhydrous basis) (12 months): 100.4% | Related substance (HPLC) ABT-301 dimer (NMT 0.5%) (12 months): 0 a/a % | Related substance (HPLC) Individual unknown Impurity (NMT 0.4%) (12 months): 0.09% | Related substance (HPLC) Total Impurities (NMT 1.0%) (12 months): 0.2% | Water content (KF) (NMT 4.0%) (12 months): 2.6% | Appearance (18 months): Pale white powder | Assay (HPLC) (98.0%~102.0%) (anhydrous basis) (18 months): 100.0% | Related substance (HPLC) ABT-301 dimer (NMT 0.5%) (18 months): 0 a/a % | Related substance (HPLC) Individual unknown Impurity (NMT 0.4%) (18 months): 0.07% | Related substance (HPLC) Total Impurities (NMT 1.0%) (18 months): 0.1% | Water content (KF) (NMT 4.0%) (18 months): 2.8% | Appearance (24 months): Pale white powder | Assay (HPLC) (98.0%~102.0%) (anhydrous basis) (24 months): 99.8% | Related substance (HPLC) ABT-301 dimer (NMT 0.5%) (24 months): 0 a/a % | Related substance (HPLC) Individual unknown Impurity (NMT 0.4%) (24 months): 0.03% | Related substance (HPLC) Total Impurities (NMT 1.0%) (24 months): 0.1% | Water content (KF) (NMT 4.0%) (24 months): 2.7% | Appearance (36 months): Pale wlite powder | Assay (HPLC) (98.0%~102.0%) (anhydrous basis) (36 months): 100.1% | Related substance (HPLC) ABT-301 dimer (NMT 0.5%) (36 months): 0 a/a % | Related substance (HPLC) Individual unknown Impurity (NMT 0.4%) (36 months): 0.08% | Related substance (HPLC) Total Impurities (NMT 1.0%) (36 months): 0.1% | Water content (KF) (NMT 4.0%) (36 months): 2.6% | Appearance (48 months): Pale white powder | Assay (HPLC) (98.0%~102.0%) (anhydrous basis) (48 months): 100.4% | Related substance (HPLC) ABT-301 dimer (NMT 0.5%) (48 months): 0 a/a % | Related substance (HPLC) Individual unknown Impurity (NMT 0.4%) (48 months): 0.08% | Related substance (HPLC) Total Impurities (NMT 1.0%) (48 months): 0.1% | Water content (KF) (NMT 4.0%) (48 months): 2.6% | Appearance (60 months): Pale white powder | Assay (HPLC) (98.0%~102.0%) (anhydrous basis) (60 months): 100.5% | Related substance (HPLC) Individual unknown Impurity (NMT 0.4%) (60 months): 0.08% | Related substance (HPLC) Total Impurities (NMT 1.0%) (60 months): 0.1% | Water content (KF) (NMT 4.0%) (60 months): 2.6%
